Assay results from ChEMBL document CHEMBL1201862, “PubChem BioAssay data set” (2004).
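Cultured in 96-well plates, cells were exposed to test compound for 48 hours across five concentrations. GI50 is the concentration that inhibits growth by half.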 Active and inactive are the calls of the source. Cut-off read from the data, not from the text of the source: active = GI50 up to about 1.1 µM and inactive = higher.

What was measured:
Assay in all cases: DTP human tumour cell line panel, 48 h
[1] = test system: LXFL 529
[2] = test system: SNB-78
[3] = test system: DLD-1
[4] = test system: DMS-114
[5] = test system: M19-MEL
[6] = test system: DMS-273
[7] = test system: XF498
[8] = test system: RXF 631
[9] = test system: HOP-18

Question: How did the GI50 [1] turn out when `CC1=NN(C(=O)c2ccccc2O)C(=O)/C1=C/c1ccc(O)cc1` was run?
Answer: 0.141 µM (active)

Question: What about the GI50 [2] of the same compound?
Answer: > 100 µM (inactive)

Question: And the GI50 [3]?
Answer: 0.151 µM (active)

Question: And the GI50 [4]?
Answer: 0.348 µM (active)

Question: For `CNC(=O)C(C)C1CCC2(C)C=CC(=O)C(C)=C2C1O` (configuration not stated), which GI50 [2] is on record?
Answer: > 100 µM (inactive)

Question: What about the GI50 [5] of the same compound?
Answer: > 100 µM (inactive)

Question: What about the GI50 [6] of the same compound?
Answer: > 37.9 µM (inactive)

Question: And the GI50 [3]?
Answer: > 100 µM (inactive)

Question: What about the GI50 [4] of the same compound?
Answer: > 100 µM (inactive)

Question: And the GI50 [7]?
Answer: > 100 µM (inactive)

Question: `COC(=O)N1C=Cc2c(c(C)c3c([nH]c4ccccc43)c2C)C1C` (configuration not stated) was tested. Which GI50 [1] did it give?
Answer: 22.2 µM (inactive)

Question: And the GI50 [5]?
Answer: 20.8 µM (inactive)

Question: What about the GI50 [6] of the same compound?
Answer: 18 µM (inactive)

Question: What about the GI50 [3] of the same compound?
Answer: 14.8 µM (inactive)

Question: And the GI50 [4]?
Answer: 19.4 µM (inactive)

Question: And the GI50 [7]?
Answer: 17.7 µM (inactive)

Question: What about the GI50 [8] of the same compound?
Answer: 16.4 µM (inactive)

Question: Which GI50 [1] does the source give for `CC(=O)Oc1ccc(Nn2c3ccccc3c3ccccc32)c(C)c1` here?
Answer: 33.7 µM (inactive)

Question: And the GI50 [2]?
Answer: 39.4 µM (inactive)

Question: What about the GI50 [5] of the same compound?
Answer: 31.9 µM (inactive)

Question: What about the GI50 [6] of the same compound?
Answer: 19.6 µM (inactive)

Question: What about the GI50 [3] of the same compound?
Answer: 43.9 µM (inactive)

Question: And the GI50 [9]?
Answer: 16.7 µM (inactive)

Question: And the GI50 [4]?
Answer: 27.1 µM (inactive)

Question: What about the GI50 [7] of the same compound?
Answer: 27.7 µM (inactive)

Question: Which GI50 [2] does the source give for `S=c1c2nc[nH]c2ncn1CCSC1=NC=NC2=NC=NC21` (configuration not stated) here?
Answer: 73.6 µM (inactive)

Question: What about the GI50 [5] of the same compound?
Answer: > 100 µM (inactive)

Question: What about the GI50 [6] of the same compound?
Answer: 64.4 µM (inactive)

Question: And the GI50 [3]?
Answer: > 100 µM (inactive)

Question: And the GI50 [9]?
Answer: > 100 µM (inactive)

Question: What about the GI50 [4] of the same compound?
Answer: > 100 µM (inactive)

Question: And the GI50 [7]?
Answer: > 100 µM (inactive)

Question: For `CN(C)CCNC(=O)c1cccc2c1nc(-c1cccnc1)c1ccccc12`, which GI50 [2] is on record?
Answer: 8.18 µM (inactive)

Question: What about the GI50 [5] of the same compound?
Answer: 5 µM (inactive)

Question: And the GI50 [6]?
Answer: 3.02 µM (inactive)

Question: What about the GI50 [3] of the same compound?
Answer: 4.1 µM (inactive)

Question: And the GI50 [9]?
Answer: 21.6 µM (inactive)

Question: What about the GI50 [4] of the same compound?
Answer: 4.91 µM (inactive)

Question: What about the GI50 [8] of the same compound?
Answer: 1.96 µM (inactive)

Question: For `CCCCCCCCCCCC(=O)C1=C(O)CCC(O)C1=O` (configuration not stated), which GI50 [1] is on record?
Answer: 16.6 µM (inactive)

Question: And the GI50 [2]?
Answer: 21.9 µM (inactive)

Question: And the GI50 [5]?
Answer: 19.5 µM (inactive)

Question: And the GI50 [6]?
Answer: 7.29 µM (inactive)

Question: What about the GI50 [3] of the same compound?
Answer: 18.2 µM (inactive)

Question: What about the GI50 [9] of the same compound?
Answer: 25.5 µM (inactive)

Question: And the GI50 [4]?
Answer: 14.2 µM (inactive)

Question: And the GI50 [7]?
Answer: 10.7 µM (inactive)

Question: How did the GI50 [2] turn out when `O=C(O)CCCCCCC[C@H]1S[C@H]1CCCCCCO` was run?
Answer: > 100 µM (inactive)

Question: And the GI50 [5]?
Answer: > 100 µM (inactive)

Question: What about the GI50 [3] of the same compound?
Answer: > 100 µM (inactive)

Question: And the GI50 [9]?
Answer: > 100 µM (inactive)

Question: What about the GI50 [4] of the same compound?
Answer: > 100 µM (inactive)

Question: And the GI50 [7]?
Answer: > 100 µM (inactive)

Question: With `CC(C)CC(N/C=C1/N=C(c2ccccc2)OC1=O)C(=O)O` (configuration not stated) as the compound, how does the GI50 [2] read?
Answer: > 100 µM (inactive)

Question: And the GI50 [5]?
Answer: > 100 µM (inactive)

Question: And the GI50 [6]?
Answer: > 100 µM (inactive)

Question: And the GI50 [3]?
Answer: > 100 µM (inactive)

Question: And the GI50 [4]?
Answer: > 100 µM (inactive)

Question: And the GI50 [8]?
Answer: > 100 µM (inactive)

Question: `COC(=O)c1s/c(=N\C(=S)N(C)C)n(-c2ccccc2)c1C(=O)OC` was tested. Which GI50 [2] did it give?
Answer: > 100 µM (inactive)

Question: And the GI50 [5]?
Answer: > 100 µM (inactive)

Question: And the GI50 [6]?
Answer: > 100 µM (inactive)

Question: What about the GI50 [4] of the same compound?
Answer: 70 µM (inactive)

Question: For `CC1(O)C=CC(=O)C=C1`, which GI50 [1] is on record?
Answer: 13.3 µM (inactive)

Question: What about the GI50 [2] of the same compound?
Answer: 34.8 µM (inactive)

Question: And the GI50 [5]?
Answer: 22.6 µM (inactive)

Question: And the GI50 [6]?
Answer: 18.3 µM (inactive)

Question: What about the GI50 [3] of the same compound?
Answer: 12.4 µM (inactive)

Question: And the GI50 [9]?
Answer: 58.2 µM (inactive)

Question: What about the GI50 [4] of the same compound?
Answer: 16.4 µM (inactive)

Question: And the GI50 [7]?
Answer: 29.1 µM (inactive)

Question: For `C/C(=N/NC(=O)c1ccccc1S(N)(=O)=O)C(CN1CCCCC1)C(C1=C(O)C2C=CC=CC2OC1=O)c1ccccc1` (configuration not stated), which GI50 [1] is on record?
Answer: 96.6 µM (inactive)

Question: And the GI50 [2]?
Answer: > 100 µM (inactive)

Question: And the GI50 [5]?
Answer: 47.6 µM (inactive)

Question: What about the GI50 [3] of the same compound?
Answer: > 100 µM (inactive)

Question: And the GI50 [9]?
Answer: 87.1 µM (inactive)

Question: What about the GI50 [7] of the same compound?
Answer: > 100 µM (inactive)

Question: And the GI50 [8]?
Answer: > 100 µM (inactive)

Question: For `CC(=O)C1C(=O)C(=O)N(c2ccc(Cl)cc2C)C1=O` (configuration not stated), which GI50 [1] is on record?
Answer: > 100 µM (inactive)

Question: What about the GI50 [2] of the same compound?
Answer: > 100 µM (inactive)

Question: And the GI50 [5]?
Answer: > 100 µM (inactive)

Question: What about the GI50 [3] of the same compound?
Answer: > 100 µM (inactive)

Question: What about the GI50 [9] of the same compound?
Answer: > 100 µM (inactive)

Question: What about the GI50 [4] of the same compound?
Answer: > 100 µM (inactive)

Question: And the GI50 [8]?
Answer: > 100 µM (inactive)

Question: What does the source list for `O=C1NC2CCCCCC2C12CCCCC2` (configuration not stated)?
Answer: GI50 [1]: > 100 µM (inactive); GI50 [2]: > 100 µM (inactive); GI50 [5]: > 100 µM (inactive); GI50 [3]: > 100 µM (inactive); GI50 [4]: > 100 µM (inactive); GI50 [7]: > 100 µM (inactive); GI50 [8]: > 100 µM (inactive)

Question: What does the source list for `Cn1c2ccccc2c2ccc3c(c21)C(=O)C(c1ccccc1)=CC3=O`?
Answer: GI50 [1]: 16.1 µM (inactive); GI50 [2]: > 100 µM (inactive); GI50 [5]: 24 µM (inactive); GI50 [6]: 21.5 µM (inactive); GI50 [3]: 17.9 µM (inactive); GI50 [9]: 0.0957 µM (active); GI50 [4]: 17.9 µM (inactive)

Question: With `O=C(NNc1ccc([N+](=O)[O-])cc1)C1OC(CO)C(O)C1O` (configuration not stated) as the compound, how does the GI50 [1] read?
Answer: 38.3 µM (inactive)

Question: And the GI50 [2]?
Answer: > 100 µM (inactive)

Question: And the GI50 [5]?
Answer: > 100 µM (inactive)

Question: What about the GI50 [6] of the same compound?
Answer: > 100 µM (inactive)

Question: And the GI50 [3]?
Answer: 47.1 µM (inactive)

Question: What about the GI50 [9] of the same compound?
Answer: > 100 µM (inactive)

Question: And the GI50 [4]?
Answer: > 100 µM (inactive)

Question: And the GI50 [7]?
Answer: > 100 µM (inactive)
